These results are taken from patent US20190016689A1, “NOVEL FLUORINATED QUINAZOLINE DERIVATIVES AS EGFR INHIBITORS” (TRILLIUM THERAPEUTICS INC., priority 2016, published 2019).

The target of one data set is EGFR (L861Q) (Homo sapiens, UniProt P00533, L861Q). Briefly: Kinase assays, selectivity panel (qPCR). To be noted: read-out: % Control @ 300 nM.
The target of a further data set is T1, EPHA6 (Homo sapiens, UniProt Q9UF33).
T1 sequence (Q9UF33 23-1036): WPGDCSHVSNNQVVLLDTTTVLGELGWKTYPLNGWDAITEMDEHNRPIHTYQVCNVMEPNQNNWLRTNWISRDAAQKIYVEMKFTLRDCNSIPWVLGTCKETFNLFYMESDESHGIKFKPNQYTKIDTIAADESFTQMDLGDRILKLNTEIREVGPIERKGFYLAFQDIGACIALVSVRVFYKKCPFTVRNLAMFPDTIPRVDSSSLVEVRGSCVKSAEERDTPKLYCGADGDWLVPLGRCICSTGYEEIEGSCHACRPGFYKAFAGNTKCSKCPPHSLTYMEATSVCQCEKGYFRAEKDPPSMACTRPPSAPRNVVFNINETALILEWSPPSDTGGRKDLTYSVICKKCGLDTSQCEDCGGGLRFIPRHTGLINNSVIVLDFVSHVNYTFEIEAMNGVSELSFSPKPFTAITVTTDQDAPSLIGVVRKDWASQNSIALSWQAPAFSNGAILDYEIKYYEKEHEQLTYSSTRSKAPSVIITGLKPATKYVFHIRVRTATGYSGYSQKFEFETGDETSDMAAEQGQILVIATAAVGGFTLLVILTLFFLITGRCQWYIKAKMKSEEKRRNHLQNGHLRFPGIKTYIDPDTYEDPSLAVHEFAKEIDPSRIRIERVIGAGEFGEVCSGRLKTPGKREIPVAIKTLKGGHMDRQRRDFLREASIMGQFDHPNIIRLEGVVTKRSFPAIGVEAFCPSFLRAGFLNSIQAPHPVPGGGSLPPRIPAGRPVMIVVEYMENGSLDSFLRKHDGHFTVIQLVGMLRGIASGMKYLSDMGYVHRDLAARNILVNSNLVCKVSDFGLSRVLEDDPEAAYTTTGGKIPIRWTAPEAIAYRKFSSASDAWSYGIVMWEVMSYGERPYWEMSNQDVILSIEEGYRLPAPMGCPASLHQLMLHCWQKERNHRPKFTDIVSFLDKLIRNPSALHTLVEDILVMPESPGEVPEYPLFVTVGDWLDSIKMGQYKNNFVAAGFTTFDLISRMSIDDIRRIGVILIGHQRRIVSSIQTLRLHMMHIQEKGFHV
The data set can be described thus: Binding to EPHA (kinase competition binding, qPCR). Details: T7 phage fusion (kinase-tagged phage) or DNA tag for qPCR; made in house; host or cells: E. coli BL21-derived host (T7 phage) or HEK-293. The settings on record: 300 nM, read-out: % Control @ 300 nM. The protocol:
The lysates were centrifuged and filtered to remove cell debris. […] All reactions were performed in polystyrene 96-well plates in a final volume of 0.135 ml.
(In general: In qPCR the cycle at which signal appears reflects the starting amount.)

A further data set concerns CAKI-1. Briefly: NCI screening panel (SRB). The data set is classed as cell-based. To be noted: Homo sapiens, CAKI-1 (Renal), 48 h; for CC50: read-out: LC50 (the source's name).
For the next data set, the target named is EGFR (Homo sapiens, UniProt P00533). The data set can be described thus: Kinase assays, selectivity panel (qPCR). To be noted: read-out: % Control @ 300 nM.
For the next data set, the system named is SK-MEL-28. The data set can be described thus: NCI screening panel (SRB). To be noted: Homo sapiens, SK-MEL-28 (Melanoma), 48 h; for CC50: read-out: LC50 (the source's name). The data set is classed as cell-based.
The test system of a further data set is K-562. The data set can be described thus: NCI screening panel (SRB). The data set is classed as cell-based. The settings on record: Homo sapiens, K562, K-562 (Leukemia), 48 h; for CC50: read-out: LC50 (the source's name).
The test system of another data set is MDA-MB-468. Briefly: NCI screening panel (SRB). The settings on record: Homo sapiens, MDA-MB-468, 48 h; for CC50: read-out: LC50.
The subject of the next data set is HCT-15. Briefly: NCI screening panel (SRB). The data set is classed as cell-based. The settings on record: Homo sapiens, HCT-15 (Colon), 48 h; for CC50: read-out: LC50 (the source's name).
Data set [1] in a line: Plasma protein binding (equilibrium dialysis). Format: in vitro ADME. To be noted: pH 7.4, dialysis 6 hours. The protocol: Prepare a basic solution by dissolving 14.2 g/L Na2HPO4 and 8.77 g/L NaCl in deionized water. Store at 4° C. for up to 7 days. Prepare an acidic solution by dissolving 15.6 g/L NaH2PO4.2H2O and 8.77 g/L NaCl in deionized water. Store at 4° C. for up to 7 days. Titrate the basic solution with the acidic solution to pH 7.4. Store at 4° C. for up to 7 days. Check pH on the day of experiment and adjust if outside specification of 7.4±0.1.
b—Preparation of Dialysis Membranes Soak the dialysis membranes in ultrapure water for 60 minutes to separate strips, then in 20% ethanol for 20 minutes, finally in dialysis buffer for 20 minutes. c—Preparation of Plasma
Thaw the frozen plasma immediately in a 37° C. water bath.
Centrifuge plasma at 3,220 g for 10 minutes at room temperature to remove clots and collect supernatant into a fresh tube. Check and record the pH of the plasma.
Note: a) Only use plasma that has been thawed no more than twice since arrival. b) Only use plasma within the range of pH 7 to pH 8.
The working solutions of test compound and control compound ketoconazole are prepared in 50% water/50% acetonitrile and DMSO at the concentration of 200 μM, respectively. And then remove 3 μL of working solution to mix with 597 μL of human, rat and mouse plasma to achieve final concentration of 1 μM (0.5% DMSO). Vortex thoroughly.
Assemble the dialysis set up following the manufacturer's instructions. Load cells with 120 μL of plasma sample and dialyzed against equal volume of dialysis buffer (PBS). The assay is performed in duplicate. Seal the dialysis plate and place the plate in an incubator at 37° C. with 5% CO2 at approximately 100 rpm for 6 hours. At the end of dialysis, remove seal and pipette 50 μL each of post-dialysis samples from both buffer and plasma chambers into separate tubes in plate.
Add 50 μL of blank plasma to the buffer samples, and an equal volume of PBS to the collected plasma samples. Add 300 μL of room temperature quench solution (acetonitrile containing internal standards (IS, 200 nM Labetalol, 100 nM Alprazolam and 2 μM Ketoprofen)) to precipitate protein. Vortex for 5 minutes. Samples in plate are centrifuged at 3,220 g for 30 minutes at room temperature. Transfer 100 μL of the supernatant to a new plate. The supernatant may be diluted with 100 μL or 200 μL water according to the LC/MS signal response and peak shape. Mix well and analyze samples using LC/MS/MS.

Setting [2] is: human, read-out: Human Plasma % Bound (converted).
The mark [3] stands for this setting: mouse, read-out: Mouse Plasma % Bound (converted).
Where [4] appears, read: rat, read-out: Rat Plasma % Bound (converted).

Where two headings read alike, the source gives them in different places.

Sequence of EGFR (L861Q) (P00533 25-1210 L861Q): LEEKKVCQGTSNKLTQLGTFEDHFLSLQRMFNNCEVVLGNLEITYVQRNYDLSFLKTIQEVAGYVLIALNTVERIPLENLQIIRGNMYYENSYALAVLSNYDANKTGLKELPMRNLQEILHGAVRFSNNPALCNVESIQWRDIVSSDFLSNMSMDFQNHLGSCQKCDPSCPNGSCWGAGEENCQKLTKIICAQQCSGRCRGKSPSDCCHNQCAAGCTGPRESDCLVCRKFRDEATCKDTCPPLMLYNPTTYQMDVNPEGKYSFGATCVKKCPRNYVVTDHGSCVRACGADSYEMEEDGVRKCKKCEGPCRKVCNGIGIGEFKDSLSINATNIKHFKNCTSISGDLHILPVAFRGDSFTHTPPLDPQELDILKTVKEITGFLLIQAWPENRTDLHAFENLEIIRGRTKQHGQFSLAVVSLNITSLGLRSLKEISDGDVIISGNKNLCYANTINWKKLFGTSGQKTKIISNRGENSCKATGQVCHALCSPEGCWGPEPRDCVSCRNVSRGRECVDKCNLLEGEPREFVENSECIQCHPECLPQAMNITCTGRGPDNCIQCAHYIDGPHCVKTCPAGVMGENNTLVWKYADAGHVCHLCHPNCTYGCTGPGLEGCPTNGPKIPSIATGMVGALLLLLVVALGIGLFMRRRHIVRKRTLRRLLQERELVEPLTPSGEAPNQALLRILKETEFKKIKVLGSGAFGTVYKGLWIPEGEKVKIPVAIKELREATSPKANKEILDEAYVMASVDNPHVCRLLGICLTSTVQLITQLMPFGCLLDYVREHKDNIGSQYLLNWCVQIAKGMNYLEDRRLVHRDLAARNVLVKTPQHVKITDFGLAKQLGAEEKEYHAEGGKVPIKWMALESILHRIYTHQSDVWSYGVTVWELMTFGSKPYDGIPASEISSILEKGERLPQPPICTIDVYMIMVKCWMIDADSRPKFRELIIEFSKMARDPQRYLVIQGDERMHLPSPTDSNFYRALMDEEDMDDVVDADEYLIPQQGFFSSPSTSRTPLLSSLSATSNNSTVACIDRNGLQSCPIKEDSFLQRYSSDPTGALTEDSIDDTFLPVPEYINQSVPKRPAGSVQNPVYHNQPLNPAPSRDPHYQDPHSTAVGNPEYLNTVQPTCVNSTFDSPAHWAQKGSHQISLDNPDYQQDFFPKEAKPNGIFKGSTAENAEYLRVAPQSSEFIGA
Sequence of EGFR (P00533 25-1210): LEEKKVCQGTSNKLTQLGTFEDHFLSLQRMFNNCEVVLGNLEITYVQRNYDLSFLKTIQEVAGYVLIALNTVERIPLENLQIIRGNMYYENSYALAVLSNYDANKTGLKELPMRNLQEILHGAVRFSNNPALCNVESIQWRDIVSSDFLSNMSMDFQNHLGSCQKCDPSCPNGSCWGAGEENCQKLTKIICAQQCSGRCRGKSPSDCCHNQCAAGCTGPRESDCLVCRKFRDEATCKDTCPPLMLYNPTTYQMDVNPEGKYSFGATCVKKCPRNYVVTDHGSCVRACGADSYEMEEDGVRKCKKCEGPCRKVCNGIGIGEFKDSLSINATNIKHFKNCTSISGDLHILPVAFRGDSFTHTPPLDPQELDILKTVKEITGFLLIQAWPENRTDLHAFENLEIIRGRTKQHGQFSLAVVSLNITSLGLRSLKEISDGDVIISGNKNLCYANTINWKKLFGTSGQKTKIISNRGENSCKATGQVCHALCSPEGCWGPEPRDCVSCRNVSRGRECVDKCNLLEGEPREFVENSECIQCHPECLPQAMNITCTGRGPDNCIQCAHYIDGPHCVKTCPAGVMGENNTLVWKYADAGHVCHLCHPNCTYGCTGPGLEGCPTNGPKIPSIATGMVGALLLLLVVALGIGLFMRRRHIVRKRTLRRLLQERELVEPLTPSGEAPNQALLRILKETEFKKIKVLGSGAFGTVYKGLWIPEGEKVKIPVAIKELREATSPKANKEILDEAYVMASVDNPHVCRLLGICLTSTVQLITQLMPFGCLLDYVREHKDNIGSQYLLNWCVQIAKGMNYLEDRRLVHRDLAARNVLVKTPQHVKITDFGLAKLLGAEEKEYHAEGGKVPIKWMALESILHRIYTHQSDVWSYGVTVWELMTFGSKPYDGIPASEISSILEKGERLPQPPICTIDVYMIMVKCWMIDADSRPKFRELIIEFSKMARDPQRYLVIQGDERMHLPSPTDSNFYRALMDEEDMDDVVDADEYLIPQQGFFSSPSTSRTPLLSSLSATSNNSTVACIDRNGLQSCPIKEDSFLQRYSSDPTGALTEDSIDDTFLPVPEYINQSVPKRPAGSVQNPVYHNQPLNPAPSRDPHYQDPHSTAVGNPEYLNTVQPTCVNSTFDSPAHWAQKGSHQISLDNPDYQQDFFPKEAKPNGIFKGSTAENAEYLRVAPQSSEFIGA

The term GI50 denotes the concentration giving 50% growth inhibition. The low end stands for greater sensitivity of the cells, the high end for lower sensitivity of the cells. For `CN(C)C/C=C/C(=O)Nc1cc2c(Nc3ccc(F)c(Cl)c3F)ncnc2cc1OCCOC(F)F.O=C(O)/C=C\C(=O)O.O=C(O)/C=C\C(=O)O` [Example I-9-MA, (E)-N-[4-(3-chloro-2,4-difluoro-anilino)-7-[2-(difluoromethoxy)ethoxy]quinazolin-6-yl]-4-(dimethylamino)but-2-enamide di-maleic acid salt], the remaining activity at 0.3 µM on EGFR (L861Q) was found to be 0.1%; at EGFR it was 0.7%. Moreover, the remaining binding at 0.3 µM on EPHA6 worked out at 3.5%. In addition, the 50% growth inhibitory concentration (GI50) in the data set with CAKI-1 is below 10 nM; in the data set on SK-MEL-28, 2290 nM; in the data set on K-562 it was 459 nM; in the data set on MDA-MB-468 it was below 10 nM; with HCT-15 it was 675 nM. Further, the CC50 in the data set with CAKI-1 worked out at 3760 nM; in the data set with SK-MEL-28, 36200 nM; with K-562, 61900 nM; in the data set with MDA-MB-468, 701 nM; in the data set with HCT-15, 9460 nM.

On to `O=C(/C=C/CN1CCCCC1)Nc1cc2c(Nc3ccc(F)c(Cl)c3F)ncnc2cc1OCCOC(F)F.O=C(O)/C=C\C(=O)O.O=C(O)/C=C\C(=O)O` [Example I-10-MA, (E)-N-[4-(3-chloro-2,4-difluoro-anilino)-7-[2-(difluoromethoxy)ethoxy]quinazolin-6-yl]-4-(1-piperidyl)but-2-enamide di-maleic acid salt], for which the remaining activity at 0.3 µM at EGFR (L861Q) worked out at 0.75%; on EGFR it was 2.7%. Also, the remaining binding at 0.3 µM on EPHA6 was 3.9%. In addition, the GI50 in the data set with CAKI-1 was 22.9 nM; in the data set with SK-MEL-28, 2490 nM; in the data set on K-562, 1030 nM; in the data set with MDA-MB-468, below 10 nM; with HCT-15, 1340 nM. In addition, the CC50 is 6530 nM in the data set on CAKI-1; 36500 nM in the data set on SK-MEL-28; above 100000 nM with K-562; 6930 nM with MDA-MB-468; 23000 nM in the data set on HCT-15.

Take `CN(C)C/C=C/C(=O)Nc1cc2c(Nc3cccc(Cl)c3F)ncnc2cc1OCCOC(F)F.O=C(O)/C=C\C(=O)O` [Example I-5-MA, (E)-N-[4-(3-chloro-2-fluoro-anilino)-7-[2-(difluoromethoxy)ethoxy]quinazolin-6-yl]-4-(dimethylamino)but-2-enamide dimaleic acid salt]: the figures for the fraction unbound at 6 h, 1 μM in [1] (setting [2]), in data set [1] (setting [3]) and in data set [1] (setting [4]) were 0.117, 0.0975 and 0.0771, respectively.

On to `CN(C)C/C=C/C(=O)Nc1cc2c(Nc3ccc(F)c(Cl)c3)ncnc2cc1O[C@H]1CCOC1` [Afatinib, reference compound], for which the fraction unbound at 6 h, 1 μM in data set [1] (setting [2]) was 0.08; in data set [1] (setting [3]) it was 0.0666; in data set [1] (setting [4]), 0.0896.
